In ChEMBL document CHEMBL1201862, “PubChem BioAssay data set” (2004):
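Step 1: Grow cells in 96-well plates. Step 2: Expose to compound for 48 hours at 5 concentrations. Step 3: Interpolate endpoints linearly; if unreached, use highest concentration. GI50: concentration for 50% inhibition of growth.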 Active and inactive are the calls of the source. No stated cut-off is given here; in the data, active = GI50 up to about 1.1 µM and inactive = higher.

Columns and labels:
Experiment in all cases: NCI anticancer screen, dose series, 48 h
SNB-19 = tested on: SNB-19
UO-31 = tested on: UO-31
RXF 393 = tested on: RXF 393
MDA-N = tested on: MDA-N
DU-145 = tested on: DU-145
NCI-H23 = tested on: NCI-H23
Hs-578T = tested on: Hs-578T
HOP-92 = tested on: HOP-92
COLO 205 = tested on: COLO 205
HL-60 = tested on: HL-60
SF-539 = tested on: SF-539
HCT-15 = tested on: HCT-15
TK-10 = tested on: TK-10
SR = tested on: SR
CAKI-1 = tested on: CAKI-1
ACHN = tested on: ACHN
HOP-62 = tested on: HOP-62
LOX IMVI = tested on: LOX IMVI
IGROV-1 = tested on: IGROV-1
A549 = tested on: A549

CCOC1OC(C)(C=C(C#N)C#N)CCC1C (stereo not given)
GI50 (SNB-19): > 57.3 µM (inactive)
GI50 (UO-31): 33.8 µM (inactive)
GI50 (RXF 393): 53.6 µM (inactive)
GI50 (MDA-N): 47.2 µM (inactive)
GI50 (DU-145): 39.2 µM (inactive)
GI50 (NCI-H23): 29.7 µM (inactive)
GI50 (Hs-578T): 36 µM (inactive)
GI50 (HOP-92): 48.5 µM (inactive)
GI50 (COLO 205): 36.8 µM (inactive)
GI50 (HL-60): 26.9 µM (inactive)
GI50 (SF-539): 23.8 µM (inactive)
GI50 (HCT-15): 25.5 µM
GI50 (TK-10): 59.6 µM (inactive)
GI50 (SR): 22.1 µM (inactive)
GI50 (CAKI-1): 33.2 µM (inactive)
GI50 (ACHN): 37.5 µM (inactive)
GI50 (HOP-62): 22.9 µM (inactive)
GI50 (LOX IMVI): 22.8 µM (inactive)
GI50 (IGROV-1): 10.5 µM (inactive)
GI50 (A549): 45.5 µM (inactive)

CC[C@@]1(OP(=O)(O)O)C(=O)OCc2c1cc1n(c2=O)Cc2cc3ccccc3nc2-1
GI50 (SNB-19): 0.0798 µM (active)
GI50 (UO-31): 0.0836 µM (active)
GI50 (RXF 393): 0.454 µM (active)
GI50 (MDA-N): 0.537 µM (active)
GI50 (DU-145): 0.0488 µM (active)
GI50 (NCI-H23): 0.0608 µM (active)
GI50 (Hs-578T): > 10 µM (inactive)
GI50 (HOP-92): 0.447 µM (active)
GI50 (COLO 205): 0.847 µM (active)
GI50 (HL-60): 0.0306 µM (active)
GI50 (SF-539): 0.109 µM (active)
GI50 (HCT-15): 0.748 µM
GI50 (TK-10): 2.55 µM (inactive)
GI50 (SR): 0.00274 µM (active)
GI50 (CAKI-1): 0.0467 µM (active)
GI50 (ACHN): 0.0405 µM (active)
GI50 (HOP-62): 0.253 µM (active)
GI50 (LOX IMVI): 0.0391 µM (active)
GI50 (IGROV-1): 0.311 µM (active)
GI50 (A549): 0.143 µM (active)

C=C(C)C(CC=C(C)C)CC12CC(CC=C(C)C)C(C)(C)C(CC=C(C)C)(C(=O)C(Cc3ccc(O)c(O)c3)=C1O)C2=O (stereo not given)
GI50 (SNB-19): > 100 µM (inactive)
GI50 (UO-31): > 100 µM (inactive)
GI50 (RXF 393): > 100 µM (inactive)
GI50 (MDA-N): > 100 µM (inactive)
GI50 (DU-145): > 100 µM (inactive)
GI50 (NCI-H23): > 100 µM (inactive)
GI50 (Hs-578T): > 100 µM (inactive)
GI50 (HOP-92): > 100 µM (inactive)
GI50 (COLO 205): > 100 µM (inactive)
GI50 (HL-60): > 100 µM (inactive)
GI50 (SF-539): > 100 µM (inactive)
GI50 (HCT-15): > 100 µM
GI50 (TK-10): > 100 µM (inactive)
GI50 (SR): > 100 µM (inactive)
GI50 (CAKI-1): > 100 µM (inactive)
GI50 (ACHN): > 100 µM (inactive)
GI50 (HOP-62): > 100 µM (inactive)
GI50 (LOX IMVI): > 100 µM (inactive)
GI50 (IGROV-1): > 100 µM (inactive)
GI50 (A549): > 100 µM (inactive)

O=C1C([P+](c2ccccc2)(c2ccccc2)c2ccccc2)=C([O-])C(=Cc2ccc(Cl)c(Cl)c2)C([O-])=C1[P+](c1ccccc1)(c1ccccc1)c1ccccc1
GI50 (SNB-19): 3.16 µM (inactive)
GI50 (UO-31): 3.75 µM (inactive)
GI50 (RXF 393): 1.71 µM (inactive)
GI50 (MDA-N): 1.9 µM (inactive)
GI50 (DU-145): 7.67 µM (inactive)
GI50 (NCI-H23): 3.51 µM (inactive)
GI50 (Hs-578T): 4.02 µM (inactive)
GI50 (HOP-92): 2.34 µM (inactive)
GI50 (COLO 205): 1.73 µM (inactive)
GI50 (HL-60): 0.735 µM (active)
GI50 (SF-539): 2.55 µM (inactive)
GI50 (HCT-15): 4.79 µM
GI50 (TK-10): 2.71 µM (inactive)
GI50 (SR): 0.925 µM (active)
GI50 (CAKI-1): 2.18 µM (inactive)
GI50 (ACHN): 2.8 µM (inactive)
GI50 (HOP-62): 3.54 µM (inactive)
GI50 (LOX IMVI): 1.06 µM (active)
GI50 (IGROV-1): 2.62 µM (inactive)
GI50 (A549): 2.62 µM (inactive)

Cc1cc2c(cc1C)[n+]([O-])c(C(=O)/C=C/c1ccc3c(c1)OCO3)c(C)[n+]2[O-]
GI50 (SNB-19): 27.5 µM (inactive)
GI50 (UO-31): > 100 µM (inactive)
GI50 (RXF 393): 28.7 µM (inactive)
GI50 (MDA-N): > 100 µM (inactive)
GI50 (DU-145): > 80.5 µM (inactive)
GI50 (NCI-H23): 38.3 µM (inactive)
GI50 (Hs-578T): 26.2 µM (inactive)
GI50 (HOP-92): 25.6 µM (inactive)
GI50 (COLO 205): > 100 µM (inactive)
GI50 (HL-60): > 100 µM (inactive)
GI50 (SF-539): 56.4 µM (inactive)
GI50 (HCT-15): > 100 µM
GI50 (TK-10): 23.9 µM (inactive)
GI50 (SR): > 100 µM (inactive)
GI50 (CAKI-1): 61.1 µM (inactive)
GI50 (ACHN): 40.9 µM (inactive)
GI50 (HOP-62): 21 µM (inactive)
GI50 (LOX IMVI): 36.7 µM (inactive)
GI50 (IGROV-1): 48.4 µM (inactive)
GI50 (A549): > 92.9 µM (inactive)

Nc1cc2c3c(cccc3c1)NC2=O
GI50 (SNB-19): 84.9 µM (inactive)
GI50 (UO-31): 21.2 µM (inactive)
GI50 (RXF 393): > 100 µM (inactive)
GI50 (MDA-N): 68.7 µM (inactive)
GI50 (DU-145): > 100 µM (inactive)
GI50 (NCI-H23): 79.8 µM (inactive)
GI50 (Hs-578T): > 100 µM (inactive)
GI50 (HOP-92): > 100 µM (inactive)
GI50 (COLO 205): > 100 µM (inactive)
GI50 (HL-60): > 100 µM (inactive)
GI50 (SF-539): 80.7 µM (inactive)
GI50 (HCT-15): > 100 µM
GI50 (TK-10): > 100 µM (inactive)
GI50 (SR): > 100 µM (inactive)
GI50 (CAKI-1): 24.6 µM (inactive)
GI50 (ACHN): 25.1 µM (inactive)
GI50 (HOP-62): 22.1 µM (inactive)
GI50 (LOX IMVI): 51.4 µM (inactive)
GI50 (IGROV-1): > 100 µM (inactive)
GI50 (A549): 69.2 µM (inactive)

CC(NC(=O)OCc1ccccc1)NC(=O)OC(C)(C)C (stereo not given)
GI50 (SNB-19): > 100 µM (inactive)
GI50 (UO-31): > 100 µM (inactive)
GI50 (RXF 393): 1.24 µM (inactive)
GI50 (MDA-N): > 100 µM (inactive)
GI50 (DU-145): > 100 µM (inactive)
GI50 (NCI-H23): > 100 µM (inactive)
GI50 (Hs-578T): > 100 µM (inactive)
GI50 (HOP-92): > 100 µM (inactive)
GI50 (COLO 205): > 100 µM (inactive)
GI50 (HL-60): > 100 µM (inactive)
GI50 (SF-539): > 100 µM (inactive)
GI50 (HCT-15): > 100 µM
GI50 (TK-10): > 100 µM (inactive)
GI50 (SR): > 100 µM (inactive)
GI50 (CAKI-1): > 100 µM (inactive)
GI50 (ACHN): > 100 µM (inactive)
GI50 (HOP-62): > 100 µM (inactive)
GI50 (LOX IMVI): > 100 µM (inactive)
GI50 (IGROV-1): > 100 µM (inactive)
GI50 (A549): > 100 µM (inactive)
